Source: publication PMC13586308, “Cell type–selective targeting by heterobifunctional protein binders via in-cell enrichment” (Nature Communications, 2026)
Read-outs that look alike come from different tables or passages of the source.

Assays:
BRD4 43-463 = BRD4 43-463 (Homo sapiens, UniProt O60885); experiment: competitive FP assay, BRD4 tandem bromo domain construct; type: binding
[1] = target: T1, His-BRD4^BD1 + eGFP-FKBP12 (Homo sapiens, UniProt O60885+P62942); experiment: HTRF ternary complex formation BRD4 BD1 + EGFP-FKBP12; type: binding; conditions: eGFP-FKBP12 5 µM, His-BRD4^BD1 100 nM; read-out: HTRF BRD4^BD1 + GFP-FKBP12 Kd
T1 construct: the His6-tag of the respective BD1 or BD2 domain of BRD4 and EGFP-labeled FKBP12

FKBP12 [2] = target: T2, FKBP12 (Homo sapiens, UniProt P62942); experiment: competitive fluorescence polarization assay, binding to FKBP12; conditions: competitive FP assay
BRD4^BD2 = target: T3, BRD4^BD2 (Homo sapiens, UniProt O60885); experiment: competitive fluorescence polarization assay, BRD4 BD2 -/+ presenter protein; type: binding
T3 construct: to the isolated BD1 and BD2 domains of BRD2, BRD3 and BRD4

MV4-11 cells = experiment: CellTiter-Glo cell viability, MV4-11; type: cell-based, human; conditions: Homo sapiens, MV4-11, 120 h; five days, without FKBP12 PROTAC; read-out: Cell toxicity (MV4-11) - FKBP12 PROTAC IC50
BRD2BD1 = target: T4, BRD2BD1 (Homo sapiens, UniProt P25440); experiment: competitive FP assay, BRD2 BD1 -/+ FKBP12; type: binding
T4 construct: to the isolated BD1 and BD2 domains of BRD2, BRD3 and BRD4

BRD2BD2 = BRD2BD2 (Homo sapiens, UniProt P25440); experiment: competitive FP assay, BRD2 BD2 -/+ FKBP12; type: binding
BRD4^BD1 = target: T5, BRD4^BD1 (Homo sapiens, UniProt O60885); experiment: competitive fluorescence polarization assay, BRD4 BD1 -/+ presenter protein; type: binding
T5 construct: to the isolated BD1 and BD2 domains of BRD2, BRD3 and BRD4

BRD3BD1 = target: T6, BRD3BD1 (Homo sapiens, UniProt Q15059); experiment: competitive FP assay, BRD3 BD1 -/+ FKBP12; type: binding
T6 construct: to the isolated BD1 and BD2 domains of BRD2, BRD3 and BRD4

FKBP12 [3] = target: T2, FKBP12; experiment: NanoBRET FKBP12 in intact HEK293 cells; type: cell-based
BRD4 43-463 Y390A [4] = experiment: competitive FP assay, BRD4 tandem construct Y390A; type: binding
BRD4 43-463 Y390A [5] = target: BRD4 43-463 Y390A (Homo sapiens, UniProt O60885, Y390A); experiment: competitive FP assay, BRD4 tandem construct Y390A; type: binding
BRD3BD2 = target: T7, BRD3BD2 (Homo sapiens, UniProt Q15059); experiment: competitive FP assay, BRD3 BD2 -/+ FKBP12; type: binding
T7 construct: to the isolated BD1 and BD2 domains of BRD2, BRD3 and BRD4

BRD4 = target: T8, BRD4 (Homo sapiens, UniProt O60885); experiment: NanoBRET BRD4, transient BRD4-NanoLuc in HEK293T cells; type: cell-based; conditions: intact HEK293 cells
T8 construct: full-length BRD4 fused to NanoLuc at N terminus; expressed in transfected cells; host or cells: HEK293T
Description: The NanoBRET assay was performed as described previously[26],[39]. To study BRD4 engagement, we employed two models: cells stably expressing BRD4-NanoLuc and cells with transient BRD4-NanoLuc expression. For stable cell lines, the coding sequence of human BRD4 (Isoform B) was fused in-frame to NanoLuc luciferase under the control of the human ubiquitin C (UbC) promoter, with left and right homology arms targeting the AAVS1 locus in intron 1 of the PPP1R12C gene to facilitate genomic integration. PC3 prostate cancer cells were transfected with this construct and vectors expressing Cas9 and an sgRNA targeting the AAVS1 locus using Lipofectamine 3000 (Invitrogen). Successful integrands were selected with blasticidin. Expression of the fusion protein was confirmed by western blot. For transient experiments, full-length BRD4 fused to NanoLuc at N terminus, was cloned into an expression plasmid and transfected into HEK293T cells using FuGENE HD (Promega, E2312), with protein expression allowed for 20 h. Serially diluted inhibitors and BRD Tracer-02 (Promega, TracerDB ID: T000022) at the Tracer KD concentration (from TracerDB)[40] were dispensed into white 384-well plates (Greiner 781207) using an ECHO 550 acoustic dispenser (Labcyte). The cells were trypsinized, resuspended in Opti-MEM without phenol red (Life Technologies), and seeded at 2 × 10^5 cells/mL. After equilibration for 2 h at 37 °C/5% CO₂ following compound treatment, the NanoBRET® NanoGlo Substrate + Extracellular NanoLuc® Inhibitor (Promega, N2162) was added according to the manufacturer’s protocol, and filtered luminescence was measured on a PHERAstar plate reader (BMG Labtech) using a donor (450 nm BP) and acceptor (610 nm LP) filter pair. Competitive displacement data were analyzed using GraphPad Prism 9 with a normalized 3-parameter curve fit: Y = 100/(1 + 10^(X − log IC₅₀)). For BRET measurements after FKBP12 knockdown in stably expressing BRD4 Nano-Luc reporter cell line, 10 nL/per well of the FKBP12 PROTAC was pipetted to each well using Labcyte to achieve the final concentration of 200 nM and the plated cells were incubated over-night at 37 °C and 5% CO2. BRET measurements were performed as outlined above.

[6] = target: T9, His-BRD4^BD2 + eGFP-FKBP12 (Homo sapiens, UniProt O60885+P62942); experiment: HTRF ternary complex formation BRD4 BD2 + EGFP-FKBP12; type: binding; conditions: eGFP-FKBP12 5 µM, His-BRD4^BD2 100 nM; read-out: HTRF BRD4^BD2 + GFP-FKBP12 Kd
T9 construct: the His6-tag of the respective BD1 or BD2 domain of BRD4 and EGFP-labeled FKBP12

BRD4 43-463 Y97A [7] = experiment: competitive FP assay, BRD4 tandem construct Y97A; type: binding
BRD4 43-463 Y97A [8] = target: BRD4 43-463 Y97A (Homo sapiens, UniProt O60885, Y97A); experiment: competitive FP assay, BRD4 tandem construct Y97A; type: binding
[9] = ratio of binding in absence or presence of FKBP12

T4 sequence (P25440 74-180 limits assumed): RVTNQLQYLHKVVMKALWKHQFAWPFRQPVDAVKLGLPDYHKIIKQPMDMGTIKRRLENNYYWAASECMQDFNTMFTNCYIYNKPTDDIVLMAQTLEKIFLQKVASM
T7 sequence (Q15059 306-415 limits assumed): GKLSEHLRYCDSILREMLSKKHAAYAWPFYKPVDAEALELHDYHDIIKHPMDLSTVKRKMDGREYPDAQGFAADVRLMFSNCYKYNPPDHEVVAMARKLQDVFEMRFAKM
BRD2BD2, sequence (P25440 344-453 limits assumed): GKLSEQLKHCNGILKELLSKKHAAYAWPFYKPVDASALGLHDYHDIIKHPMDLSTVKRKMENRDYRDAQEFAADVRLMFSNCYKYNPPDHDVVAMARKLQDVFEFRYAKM
T6 sequence (Q15059 34-140 limits assumed): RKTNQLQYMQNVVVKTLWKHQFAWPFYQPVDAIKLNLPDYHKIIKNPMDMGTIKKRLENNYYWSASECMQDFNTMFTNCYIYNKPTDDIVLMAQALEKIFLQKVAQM

## Cc1sc2c(c1C)C(c1ccc(Cl)cc1)=NC(CC(=O)NCCOCCn1cc(COCC3CN(Cc4ccccn4)C(=O)C4CCCC3N4S(=O)(=O)c3cc(Cl)cc(Cl)c3)nn1)c1nnc(C)n1-2 (centres unmarked) [a1d]
BRD4 43-463
  α BRD4 43-463: 6.7
BRD4 43-463; Binding to BRD4 43-463 + FKBP12 Kd, 15 µM FKBP12
  Kd: 26 ± 3 nM
BRD4 43-463; Binding to BRD4 43-463 - FKBP12 Kd, absence of FKBP12
  Kd: 175 ± 17 nM
[1]
  Kd: 9 ± 3 nM
FKBP12 [2]
  Kd: 1 nM
BRD4^BD2; 15 µM FKBP51FK1, read-out: Binding to BRD4BD2 + FKBP51FK1 Kd
  Kd: 470 ± 80 nM
BRD4^BD2; absence of FKBP12, 2 nM JQ1-FL tracer, read-out: Binding to BRD4^BD2 - FKBP12 Kd
  Kd: 320 ± 50 nM
BRD4^BD2; absence of FKBP51FK1 (SI Table 3), read-out: Binding to BRD4BD2 - FKBP51FK1 Kd
  Kd: 180 ± 30 nM
BRD4^BD2; presence of 15 µM FKBP12, read-out: Binding to BRD4^BD2 + FKBP12 Kd (converted)
  Kd: 70 nM
BRD4^BD2; [9]
  α BRD4^BD2 (binding cooperativity factor): 4.5
MV4-11 cells
  IC50: 1.7 nM
BRD2BD1
  α BRD2BD1: 7.2
BRD2BD1; 15 µM FKBP12, read-out: Binding to BRD2BD1 + FKBP12 Kd
  Kd: 36 ± 9 nM
BRD2BD1; absence of FKBP12, read-out: Binding to BRD2BD1 - FKBP12 Kd
  Kd: 260 ± 60 nM
BRD2BD2
  α BRD2BD2: 2.5
BRD2BD2; 15 µM FKBP12, read-out: Binding to BRD2BD2 + FKBP12 Kd
  Kd: 75 ± 20 nM
BRD2BD2; absence of FKBP12, read-out: Binding to BRD2BD2 - FKBP12 Kd
  Kd: 190 ± 50 nM
BRD4^BD1; 15 µM FKBP51FK1, read-out: Binding to BRD4BD1 + FKBP51FK1 Kd
  Kd: 500 ± 90 nM
BRD4^BD1; absence of FKBP12, 2 nM JQ1-FL tracer, read-out: Binding to BRD4^BD1 - FKBP12 Kd
  Kd: 450 ± 70 nM
BRD4^BD1; absence of FKBP51FK1 (SI Table 3), read-out: Binding to BRD4BD1 - FKBP51FK1 Kd
  Kd: 300 ± 50 nM
BRD4^BD1; presence of 15 µM FKBP12, read-out: Binding to BRD4^BD1 + FKBP12 Kd (converted)
  Kd: 25 nM
BRD4^BD1; [9]
  α BRD4^BD1 (binding cooperativity factor): 18
BRD4^BD1; values quoted in rebuttal letter (earlier version of Tab. 1), read-out: binding to BRD4BD1 + FKBP12
  Kd: 26 nM
BRD3BD1
  α BRD3BD1: 7.4
BRD3BD1; 15 µM FKBP12, read-out: Binding to BRD3BD1 + FKBP12 Kd
  Kd: 23 ± 5 nM
BRD3BD1; absence of FKBP12, read-out: Binding to BRD3BD1 - FKBP12 Kd
  Kd: 170 ± 27 nM
FKBP12 [3]
  IC50: 14 nM
BRD4 43-463 Y390A [4]
  α BRD4 43-463 Y390A: 10
BRD4 43-463 Y390A [5]; Binding to BRD4 43-463 Y390A + FKBP12 Kd, 15 µM FKBP12
  Kd: 18 ± 2 nM
BRD4 43-463 Y390A [5]; absence of FKBP12
  Kd: 183 ± 13 nM
BRD3BD2
  α BRD3BD2: 1.0
BRD3BD2; 15 µM FKBP12, read-out: Binding to BRD3BD2 + FKBP12 Kd
  Kd: 140 ± 30 nM
BRD3BD2; absence of FKBP12, read-out: Binding to BRD3BD2 - FKBP12 Kd
  Kd: 150 ± 30 nM
BRD4
  IC50: 820 nM
[6]
  Kd: 26 ± 6 nM
BRD4 43-463 Y97A [7]
  α BRD4 43-463 Y97A: 2.2
BRD4 43-463 Y97A [8]; Binding to BRD4 43-463 Y97A + FKBP12 Kd, 15 µM FKBP12
  Kd: 59 ± 5 nM
BRD4 43-463 Y97A [8]; Binding to BRD4 43-463 Y97A - FKBP12 Kd, absence of FKBP12
  Kd: 130 ± 16 nM
